Experimental data reported in paper PMC11840788, “3,3′-Diindolylmethane (DIM): A Molecular Scaffold for Inhibition of WWP1 and WWP2, Members of the NEDD4 Family HECT E3 Ligases” (ACS Omega, 2025).

Legend:
NEDD4-1 = system: NEDD4-1; parameters: method as in PMID 27979631; details: cited from earlier work
WWP1 = WWP1 (Homo sapiens, UniProt Q9H0M0); assay: STD NMR binding, WWP1; details: 500 μM ligand, 20 μM protein
Description: (§1) Given the similarities between WWP1 and WWP2 HECT domains, we speculated that the relatively low sensitivity of DSF may not be able to detect weak WWP2-I3C interactions and therefore opted to investigate further using STD NMR. STD NMR is a versatile ligand-based NMR approach, relying on selective saturation of the protein. This saturation is transferred to the ligand when and if the ligand binds, causing a reduction of the signal intensities. The STD intensities are calculated as the difference of the reference spectra (where selective saturation is off) minus the irradiated spectra, and they are proportional to the vicinity of the protein surface. […]
(§2) An Amicon centrifuge filter unit with a 10 kDa MW cutoff was used to exchange the protein in 25 mM d19-2,2-bis(hydroxymethyl)-2,2′,2″-nitrilotriethanol, 100 mM NaCl and 1.0 mM DTT buffer pH* 8.9 (uncorrected for the deuterium isotope effect on the pH glass electrode) in D2O. […] All the NMR experiments were performed on a Bruker Avance 800.23 MHz at 278 K. Binding epitope mappings were obtained by determining the initial slopes (STD0) calculated by performing a least-squares fitting of the following monoexponential curve: [drawing 1] where STD(tsat) is the STD intensity for a saturation time, tsat, STDmax is the maximum STD intensity and ksat is the rate constant for saturation transfer. […]

WWP2 = target: T1, WWP2 (Homo sapiens, UniProt O00308); assay: STD NMR binding, WWP2; details: 500 μM ligand, 20 μM protein
T1 construct: made in house; host or cells: E. coli
Description: as §1, §2

T1 sequence (O00308 whole entry): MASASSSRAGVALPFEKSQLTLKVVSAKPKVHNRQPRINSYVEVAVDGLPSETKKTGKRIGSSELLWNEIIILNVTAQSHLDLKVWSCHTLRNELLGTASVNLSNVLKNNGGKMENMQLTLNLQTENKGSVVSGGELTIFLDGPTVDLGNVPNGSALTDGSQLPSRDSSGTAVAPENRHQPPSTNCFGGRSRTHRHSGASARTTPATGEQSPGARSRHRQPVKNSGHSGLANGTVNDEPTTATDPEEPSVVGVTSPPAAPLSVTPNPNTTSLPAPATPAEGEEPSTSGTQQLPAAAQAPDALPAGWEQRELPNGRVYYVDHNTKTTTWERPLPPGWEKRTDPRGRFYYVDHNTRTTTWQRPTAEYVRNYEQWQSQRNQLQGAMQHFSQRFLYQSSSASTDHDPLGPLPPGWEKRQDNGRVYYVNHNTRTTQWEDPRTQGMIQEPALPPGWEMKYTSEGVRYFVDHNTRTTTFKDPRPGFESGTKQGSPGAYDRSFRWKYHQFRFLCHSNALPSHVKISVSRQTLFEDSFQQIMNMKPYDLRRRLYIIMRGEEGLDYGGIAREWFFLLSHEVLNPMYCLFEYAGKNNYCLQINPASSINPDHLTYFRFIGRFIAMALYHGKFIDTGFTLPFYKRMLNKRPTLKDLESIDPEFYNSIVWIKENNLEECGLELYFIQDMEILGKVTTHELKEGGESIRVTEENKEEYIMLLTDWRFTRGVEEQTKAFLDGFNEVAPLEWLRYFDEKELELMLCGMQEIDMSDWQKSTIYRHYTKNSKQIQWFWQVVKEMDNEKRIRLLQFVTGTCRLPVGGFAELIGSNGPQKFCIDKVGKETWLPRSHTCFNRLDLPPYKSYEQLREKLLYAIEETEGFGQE
Chain of WWP1 (Q9H0M0 546-922 limits assumed): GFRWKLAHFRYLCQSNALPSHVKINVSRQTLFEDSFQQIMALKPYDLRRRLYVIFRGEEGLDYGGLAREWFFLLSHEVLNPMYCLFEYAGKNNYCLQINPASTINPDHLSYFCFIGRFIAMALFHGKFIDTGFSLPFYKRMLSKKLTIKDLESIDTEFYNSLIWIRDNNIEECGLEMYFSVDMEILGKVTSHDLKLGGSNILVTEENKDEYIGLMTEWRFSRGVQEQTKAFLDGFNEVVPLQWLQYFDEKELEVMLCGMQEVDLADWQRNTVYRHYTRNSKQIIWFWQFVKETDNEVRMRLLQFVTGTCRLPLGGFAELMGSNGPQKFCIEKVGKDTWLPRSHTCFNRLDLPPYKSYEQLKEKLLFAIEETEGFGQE

OCc1c[nH]c2ccccc12 [Compound I3C, Indole-3-carbinol, reference compound]
IC50 (NEDD4-1): 284 µM
STD intensities, WWP1-I3C complex (WWP1): ~30%
STD intensities, WWP2-I3C complex (in words, compared with WWP1) (WWP2): much lower
